# Experimental data taken from ChEMBL document CHEMBL3885881, “DrugMatrix”.
# Species on record: Rattus norvegicus
# Assay: DrugMatrix - Regimen: Daily Repeat
# Type: toxicity, organism-based, Sprague-Dawley
# Parameters: regimen Daily Repeat, gender Male, age 6-8 weeks
# Conditions: in vivo, ip, 1 mg/kg, route intraperitoneal, dose level High, vehicle 100 % SALINE; for ABSOLUTE BASOPHIL / ABSOLUTE EOSINOPHIL / ABSOLUTE LYMPHOCYTE / ABSOLUTE MONOCYTE / ABSOLUTE SEGMENTED NEUTROPHIL / BASOPHIL / EOSINOPHIL / ERYTHROCYTE COUNT / HEMATOCRIT / HEMOGLOBIN / LEUKOCYTE COUNT / LYMPHOCYTE / MEAN CORPUSCULAR HEMOGLOBIN / MEAN CORPUSCULAR HEMOGLOBIN CONCENTRATION / MEAN CORPUSCULAR VOLUME / MONOCYTE / NEUTROPHIL / NUCLEATED RED BLOOD CELLS / PLATELET COUNT: tissue Blood; for ALANINE AMINOTRANSFERASE / ALKALINE PHOSPHATASE / ASPARTATE AMINOTRANSFERASE / BLOOD UREA NITROGEN / CARBON DIOXIDE / CHLORIDE / CHOLESTEROL / CREATININE / GLUCOSE / LACTATE DEHYDROGENASE / LIPASE / PHOSPHORUS / POTASSIUM / SODIUM / TOTAL BILIRUBIN / TOTAL PROTEIN / URIC ACID: tissue Plasma
structure (smiles),measurement,setting,value
CC[C@H]1CN2CCc3cc(OC)c(OC)cc3[C@@H]2C[C@@H]1C[C@H]1NCCc2cc(OC)c(OC)cc21 [EMETINE],ABSOLUTE BASOPHIL,"72 h, time 3 day",0 CELLS/uL
same,ABSOLUTE EOSINOPHIL,"72 h, time 3 day",235.33 CELLS/uL
same,ABSOLUTE LYMPHOCYTE,"72 h, time 3 day",9173.33 CELLS/uL
same,ABSOLUTE MONOCYTE,"72 h, time 3 day",141.33 CELLS/uL
same,ABSOLUTE SEGMENTED NEUTROPHIL,"72 h, time 3 day",916.67 CELLS/uL
same,BASOPHIL,"72 h, time 3 day",0%
same,EOSINOPHIL,"72 h, time 3 day",2.33%
same,ERYTHROCYTE COUNT,"72 h, time 3 day",6.53 x10E6/uL
same,HEMATOCRIT,"72 h, time 3 day",38.67%
same,HEMOGLOBIN,"72 h, time 3 day",13.97 G/DL
same,LEUKOCYTE COUNT,"72 h, time 3 day",10.47 x10E3/uL
same,LYMPHOCYTE,"72 h, time 3 day",88%
same,MEAN CORPUSCULAR HEMOGLOBIN,"72 h, time 3 day",21.37 pg
same,MEAN CORPUSCULAR HEMOGLOBIN CONCENTRATION,"72 h, time 3 day",36.1 G/DL
same,MEAN CORPUSCULAR VOLUME,"72 h, time 3 day",59.2 fL
same,MONOCYTE,"72 h, time 3 day",1.33%
same,NEUTROPHIL,"72 h, time 3 day",8.33%
same,NUCLEATED RED BLOOD CELLS,"72 h, time 3 day",0 /100WBC
same,PLATELET COUNT,"72 h, time 3 day",1026.33 x10E3/uL
same,ALANINE AMINOTRANSFERASE,"72 h, time 3 day",66.33 u/L
same,ALKALINE PHOSPHATASE,"72 h, time 3 day",365 u/L
same,ASPARTATE AMINOTRANSFERASE,"72 h, time 3 day",82.33 u/L
same,BLOOD UREA NITROGEN,"72 h, time 3 day",17.67 mg/dL
same,CARBON DIOXIDE,"72 h, time 3 day",34.67 mmol/L
same,CHLORIDE,"72 h, time 3 day",100.33 MEQ/L
same,CHOLESTEROL,"72 h, time 3 day",63 mg/dL
same,CREATININE,"72 h, time 3 day",0.22 mg/dL
same,GLUCOSE,"72 h, time 3 day",180.33 mg/dL
same,LACTATE DEHYDROGENASE,"72 h, time 3 day",120.33 u/L
same,LIPASE,"72 h, time 3 day",9 u/L
same,PHOSPHORUS,"72 h, time 3 day",11.83 mg/dL
same,POTASSIUM,"72 h, time 3 day",6.48 MEQ/L
same,SODIUM,"72 h, time 3 day",146.33 MEQ/L
same,TOTAL BILIRUBIN,"72 h, time 3 day",0.2 mg/dL
same,TOTAL PROTEIN,"72 h, time 3 day",6.27 G/DL
same,URIC ACID,"72 h, time 3 day",1.73 mg/dL
same,ABSOLUTE BASOPHIL,"120 h, time 5 day",0 CELLS/uL
same,ABSOLUTE EOSINOPHIL,"120 h, time 5 day",107.33 CELLS/uL
same,ABSOLUTE LYMPHOCYTE,"120 h, time 5 day",9674.67 CELLS/uL
same,ABSOLUTE MONOCYTE,"120 h, time 5 day",240.33 CELLS/uL
same,ABSOLUTE SEGMENTED NEUTROPHIL,"120 h, time 5 day",1811 CELLS/uL
same,BASOPHIL,"120 h, time 5 day",0%
same,EOSINOPHIL,"120 h, time 5 day",1%
same,ERYTHROCYTE COUNT,"120 h, time 5 day",6.23 x10E6/uL
same,HEMATOCRIT,"120 h, time 5 day",37.3%
same,HEMOGLOBIN,"120 h, time 5 day",13.67 G/DL
same,LEUKOCYTE COUNT,"120 h, time 5 day",11.83 x10E3/uL
same,LYMPHOCYTE,"120 h, time 5 day",82.67%
same,MEAN CORPUSCULAR HEMOGLOBIN,"120 h, time 5 day",21.93 pg
same,MEAN CORPUSCULAR HEMOGLOBIN CONCENTRATION,"120 h, time 5 day",36.67 G/DL
same,MEAN CORPUSCULAR VOLUME,"120 h, time 5 day",59.8 fL
same,MONOCYTE,"120 h, time 5 day",2%
same,NEUTROPHIL,"120 h, time 5 day",14.33%
same,NUCLEATED RED BLOOD CELLS,"120 h, time 5 day",0 /100WBC
same,PLATELET COUNT,"120 h, time 5 day",1167.33 x10E3/uL
same,ALANINE AMINOTRANSFERASE,"120 h, time 5 day",57 u/L
same,ALKALINE PHOSPHATASE,"120 h, time 5 day",325 u/L
same,ASPARTATE AMINOTRANSFERASE,"120 h, time 5 day",102.33 u/L
same,BLOOD UREA NITROGEN,"120 h, time 5 day",16.67 mg/dL
same,CARBON DIOXIDE,"120 h, time 5 day",28.67 mmol/L
same,CHLORIDE,"120 h, time 5 day",100.67 MEQ/L
same,CHOLESTEROL,"120 h, time 5 day",52.67 mg/dL
same,CREATININE,"120 h, time 5 day",0.23 mg/dL
same,GLUCOSE,"120 h, time 5 day",272.67 mg/dL
same,LACTATE DEHYDROGENASE,"120 h, time 5 day",312 u/L
same,LIPASE,"120 h, time 5 day",8.67 u/L
same,PHOSPHORUS,"120 h, time 5 day",14.97 mg/dL
same,POTASSIUM,"120 h, time 5 day",5.87 MEQ/L
same,SODIUM,"120 h, time 5 day",146.87 MEQ/L
same,TOTAL BILIRUBIN,"120 h, time 5 day",0.1 mg/dL
same,TOTAL PROTEIN,"120 h, time 5 day",5.9 G/DL
same,URIC ACID,"120 h, time 5 day",2.8 mg/dL
same,ABSOLUTE BASOPHIL,"[…], time 14 day",0 CELLS/uL
same,ABSOLUTE EOSINOPHIL,"[…], time 14 day",124.6 CELLS/uL
same,ABSOLUTE LYMPHOCYTE,"[…], time 14 day",16602.4 CELLS/uL
same,ABSOLUTE MONOCYTE,"[…], time 14 day",725.4 CELLS/uL
same,ABSOLUTE SEGMENTED NEUTROPHIL,"[…], time 14 day",1987.6 CELLS/uL
same,BASOPHIL,"[…], time 14 day",0%
same,EOSINOPHIL,"[…], time 14 day",0.6%
same,ERYTHROCYTE COUNT,"[…], time 14 day",6.66 x10E6/uL
same,HEMATOCRIT,"[…], time 14 day",38.76%
same,HEMOGLOBIN,"[…], time 14 day",14.18 G/DL
same,LEUKOCYTE COUNT,"[…], time 14 day",19.44 x10E3/uL
same,LYMPHOCYTE,"[…], time 14 day",85.6%
same,MEAN CORPUSCULAR HEMOGLOBIN,"[…], time 14 day",21.32 pg
same,MEAN CORPUSCULAR HEMOGLOBIN CONCENTRATION,"[…], time 14 day",36.58 G/DL
same,MEAN CORPUSCULAR VOLUME,"[…], time 14 day",58.24 fL
same,MONOCYTE,"[…], time 14 day",3.6%
same,NEUTROPHIL,"[…], time 14 day",10.2%
same,NUCLEATED RED BLOOD CELLS,"[…], time 14 day",0 /100WBC
same,PLATELET COUNT,"[…], time 14 day",1306.2 x10E3/uL
same,ALANINE AMINOTRANSFERASE,"[…], time 14 day",45.2 u/L
same,ALKALINE PHOSPHATASE,"[…], time 14 day",253.2 u/L
same,ASPARTATE AMINOTRANSFERASE,"[…], time 14 day",99 u/L
same,BLOOD UREA NITROGEN,"[…], time 14 day",13.6 mg/dL
same,CARBON DIOXIDE,"[…], time 14 day",31.8 mmol/L
same,CHLORIDE,"[…], time 14 day",101 MEQ/L
same,CHOLESTEROL,"[…], time 14 day",62.2 mg/dL
same,CREATININE,"[…], time 14 day",0.14 mg/dL
same,GLUCOSE,"[…], time 14 day",143.2 mg/dL
same,LACTATE DEHYDROGENASE,"[…], time 14 day",172.6 u/L
same,LIPASE,"[…], time 14 day",8.8 u/L
same,PHOSPHORUS,"[…], time 14 day",11.54 mg/dL
same,POTASSIUM,"[…], time 14 day",6.76 MEQ/L
same,SODIUM,"[…], time 14 day",145.5 MEQ/L
same,TOTAL BILIRUBIN,"[…], time 14 day",0.2 mg/dL
same,TOTAL PROTEIN,"[…], time 14 day",5.82 G/DL
same,URIC ACID,"[…], time 14 day",1.66 mg/dL
